Data: patent publication US20220119868A1, “PROFILING RNA-SMALL MOLECULE BINDING SITES WITH OLIGONUCLEOTIDES” (priority 2018, published 2022)
Where “and” joins values, the source holds several entries; their conditions need not be identical. Equal entries are not always repeated.

Experiments:
CHK1 = CHK1 (Homo sapiens, UniProt O14757); assay: In vitro inhibition of a panel of kinases; assay type: biochemical; conditions: 20 μM
Text: (§1) Effect of compounds on HCV replication. […] Cytotoxicity assays. […] Oligonucleotide profiling of target engagement in vitro. […] Primers can be found in Table 4. […] Inhibition of kinases. […] . Figure S7C).

[1] = test system: RNA library C (3×2 nucleotide asymmetric internal loops); assay: 2DCS selection with RNA-seq and HiT-StARTS analysis (Zobs, Fitness Score); assay type: binding; set-up: key to Fitness Score: Zobs normalized so most significant interaction = 100
Text: Identification of RNA-binding Small Molecules by 2DCS. […] We have previously validated the secondary structures formed by members of RNA libraries by enzymatic mapping^8, 12, 34. These discrete RNA motifs were selected because they are present in cellular RNAs. Due to the library-versus-library nature of these studies, they represent the largest screens completed to date, probing >52,000,000 interactions. Of the 1,987 compounds probed, 239 bound RNA (12.0%).
A final screen was then completed in which the 91 array-immobilized compounds were incubated with all five RNA motif libraries separately in the presence of oligonucleotide competitors F-J, d(AT)11 and d(GC)11. Oligonucleotides F-J mimic regions common to all library members, restricting binding to the randomized regions. (Note: oligonucleotide J was not used for hairpin selections.) After rigorous washing to remove unbound RNAs, bound RNAs were harvested and identified by RNA-seq. By completing selections under conditions of high oligonucleotides stringency (by use of excess competitor oligonucleotides), these studies identified small molecules that bound RNA motifs avidly. A challenge in the small molecule RNA-targeting area has been the development and identification of selective interactions between small molecules and RNAs. In myriad studies, 2DCS has defined selective RNA motif-small molecule interactions with varied affinities^11, 12, 35, 36.
Identification of Privileged RNA Space by RNA-Seq. Using RNA-seq, a large sequencing dataset was obtained for each pool of RNAs that were specifically bound to each small molecule. RNA libraries A, B, C, D, and E had at least 12.1-fold (average: 133.1±111.8), 6.7-fold (average: 80.8±78.7), 9.9-fold (average: 103.5±110.6), 7.2-fold (average: 75.7±65.6), and 6.0-fold (average: 36.3±31.6) coverage for each small molecule selection, respectively, as compared to the number of unique sequences within the corresponding RNA library. It was previously shown that at least 6-fold coverage is required to generate binding landscape maps^12. RNA-seq data were then analyzed by High Throughput Structure-Activity Relationships Through Sequencing (HiT-StARTS)^12 to identify the privileged RNA motifs that bind each small molecule. Briefly, the frequency of occurrence of a selected RNA was compared to the frequency of occurrence of the same RNA from RNA-seq analysis of the starting RNA library to account for biases arising during transcription and RT-PCR. This pooled population comparison affords the parameter Zobs, a metric of statistical confidence. A large, positive Zobs indicates a strong preference for binding the motif while a negative Zobs indicates a strong preference against binding the motif. A Fitness Score is assigned by normalizing the Zobs values to the most statistically significant small molecule-RNA interaction to 100. […] Structure-Activity Relationships (SAR). Next, the most privileged RNA motif binders and the most discriminated against RNA motifs (non-binders) for each compound selection was analyzed by generating LOGOS from the highest and lowest 0.5% of Zobs scores^37. By comparing the LOGOS for related compounds, or DiffLogos, SAR can be defined. Indeed, various hit compounds differ by a single functional group, including compounds A and B (FIG. 5). […] In contrast, the RNA motifs most hindered from binding compounds 1 and 2 (discriminated against) are quite different (FIG. 5B).
Oligonucleotides. All DNA oligonucleotides were purchased from Integrated DNA Technologies, Inc. (IDT) and used without further purification. RNA oligonucleotide competitors were purchased from Dharmacon and de-protected according to the manufacturer's standard procedure. All oligonucleotide solutions were prepared with NANOpure water. The RNA motif libraries were synthesized by in vitro transcription from the corresponding DNA template that was custom-mixed at the randomized positions to ensure equivalent representation of all four nucleotides. Compounds. […]

[2] = test system: WT SLI RNA (HCV SL I model); assay: Oligonucleotide profiling of target engagement in vitro (RNase H cleavage); assay type: biochemical, Hepatitis C virus; conditions: antisense oligonucleotide and RNase H
Text: Compound 8 binds the desired site in HCV RNA in vitro and in cells. To validate that the lead compounds bind to the desired site in the HCV RNA genome, an approach to profile binding site by using an antisense oligonucleotide was developed (FIG. 8A). Antisense oligonucleotides bind to complementary RNAs and recruit RNase H, which cleaves the RNA strand. Upon small molecule binding, the RNA's structure is stabilized, making it more difficult for the oligonucleotide to invade the structure. Thus, small molecule binding sites can be read out by inhibition of oligonucleotide cleavage. For in vitro studies, a small segment of the target site was transcribed that folds into the desired structure.
(§2) Application of an antisense agent (Table 4) and RNase H cleaves the RNA at the desired site. […] Additional control experiments were completed in which the RNA was mutated to remove 8's binding site and the corresponding complementary oligonucleotide to induce RNase H cleavage.
as §1

[3] = test system: BP-SLI RNA (mutated SL I); assay: Oligonucleotide profiling in vitro, control RNA mutated to remove 8's binding site; assay type: biochemical, Hepatitis C virus; conditions: complementary oligonucleotide
Text: as §2, §1

Sequence of CHK1 (O14757 whole entry): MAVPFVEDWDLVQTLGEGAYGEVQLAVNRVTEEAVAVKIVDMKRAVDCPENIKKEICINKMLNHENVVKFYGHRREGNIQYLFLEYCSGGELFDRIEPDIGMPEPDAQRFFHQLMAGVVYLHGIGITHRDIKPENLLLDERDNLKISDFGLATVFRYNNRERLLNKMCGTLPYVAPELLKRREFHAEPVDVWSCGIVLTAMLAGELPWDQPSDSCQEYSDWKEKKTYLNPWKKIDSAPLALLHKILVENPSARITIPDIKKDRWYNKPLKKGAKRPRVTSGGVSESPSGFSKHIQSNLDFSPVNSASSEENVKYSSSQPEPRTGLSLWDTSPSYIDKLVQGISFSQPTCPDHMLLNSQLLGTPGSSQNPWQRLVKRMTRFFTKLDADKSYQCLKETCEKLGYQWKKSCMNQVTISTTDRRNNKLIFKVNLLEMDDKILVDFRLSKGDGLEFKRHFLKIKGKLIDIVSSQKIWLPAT

SMILES | inhibition of CHK1 in vitro (CHK1) | Fitness Score ([1]; RNA motif 5′GAU3′/3′C_A5′) | Zobs ([1]; RNA motif 5′GAU3′/3′C_A5′) | Fitness Score ([1]; RNA motif 5′GCU3′/3′C_A5′) | Zobs ([1]; RNA motif 5′GCU3′/3′C_A5′) | Fitness Score ([1]; RNA motif 5′UCUAU3′/3′ACCA5′) | Zobs ([1]; RNA motif 5′UCUAU3′/3′ACCA5′) | Zobs ([1]; RNA motif 5′UUA3′/3′A_U5′) | inhibition of antisense/RNase H-mediated cleavage of SL I in vitro [2] | effect on antisense/RNase H cleavage of mutated RNA [3] | Fitness Score ([1]; RNA motif 5′AAC3′/3′U_G5′) | Zobs ([1]; RNA motif 5′AAC3′/3′U_G5′) | Fitness Score ([1]; RNA motif 5′GAG3′/3′C_C5′) | Zobs ([1]; RNA motif 5′GAG3′/3′C_C5′) | Zobs ([1]; RNA motif 5′UCCAU3′/3′AUCA (non-binder)) | Zobs ([1]; RNA motif 5′UCCUU3′/3′AUUA5′ (non-binder)) | Fitness Score ([1]; RNA motif 5′UGU3′/3′G_A5′) | Zobs ([1]; RNA motif 5′UGU3′/3′G_A5′) | Fitness Score ([1]; RNA motif 5′UUA3′/3′A_U5′, Zobs normalized to most significant interaction = 100)
O=C(Nc1ccc(C2=NCCN2)cc1)c1cc(C(=O)Nc2ccc(C3=NCCN3)cc2)cc(C(=O)Nc2ccc(C3=NCCN3)cc2)c1 [Compound 8] | inhibited | 87 | 11.8 | 79 | 10.8 | 45 | 6.1 | 13.6 and 9.5 | limited the ability of the antisense to mediate cleavage of the target | the extent and pattern of cleavage were similar in the absence and the presence of compound 8 |  |  |  |  |  |  |  |  | 
O=C(Nc1cccc(NC(=O)Nc2cc(C(=O)Nc3ccc(C4=NCCN4)cc3)ccc2C(=O)Nc2ccc(C3=NCCN3)cc2)c1)Nc1cc(C(=O)Nc2ccc(C3=NCCN3)cc2)ccc1C(=O)Nc1ccc(C2=NCCN2)cc1 [Compound 7] |  |  |  |  |  |  |  | 25.2 |  |  | 33 | 8.2 | 73 | 18.3 | −2.8 | 1.1 | 47 | 11.8 | 100
